Where two headings read alike, the source gives them in different places.
Assays:
[1] = test system: MCF-7/ADR cells (multidrug resistant); test: Antiproliferative assay, methylene blue staining; format: cell-based, human
Text: The following cell lines are obtained from the American Type Culture Collection (ATCC, Rockville, Md., USA): human colon carcinomas HCT-15 (CCL 225) and HCT-116 (CCL 247), human lung adenocarcinoma A549 (CCL 185), human large cell carcinoma NCI-H460 (HTB 177), estrogen-independent breast carcinoma MDA-MB-231 ([…]), prostate cancer cell line Du 145 (HTB 81). The human KB-31 (drug-sensitive) and KB-8511 (multidrug-resistant, Pgp170 overexpressing) epidermoid carcinoma cells are obtained from Dr. R. M. Baker, Roswell Park Memorial Institute (Buffalo, N.Y., USA) and have been previously described (Akiyam S, et al. Somatic Cell Molec Genetics 1985;11:117-126 and Fojo A, et al., Cancer Res. 1997;45:3002-3007). The human metastatic prostate carcinoma PC-3M is obtained from Dr. I. J. Fidler (MD Anderson Cancer Center, Houston, Tex., USA). […]
For the antiproliferative assays, cells are seeded at 1.5×10^3/well into 96-well microtiter plates and incubated overnight. […] After washing, the dye is eluted with 3% v/v HCl and the optical density measured at 665 nm with a SpectraMax 340 (Bucherer, Basel, Switzerland). IC50 values are determined by a computerized system (SoftPro, Bucherer, Basel, Switzerland) using the formula (OD test—OD start)/(OD control—OD start)×100. […]

[2] = test system: A549 cells; test: Antiproliferative assay (MTS); format: cell-based, human; conditions: 72 h exposure, two independent experiments, read-out: IC50 cell proliferation
Procedure: A549, a human non-small cell lung carcinoma and MDA-MB-435, a human breast carcinoma, used in this study are obtained from the American Type Culture Collection (ATCC, Rockville, Md., USA). MDA-MB-435 cells are maintained in MEM containing 10% FBS, 1% sodium pyruvate, 1% MEM non-essential amino acids, and 15 mM HEPES (pH=7.4). A549 cells are maintained in RPMI 1640 containing 10% FBS. 1A9, a single-cell clone of the human ovarian carcinoma cell line A2780 and PTX22, the paclitaxel-resistant subline, used in this stdy are obtained from M. Wartman (Novartis Pharmauticals). 1A9 cells and PTX22 cells are maintained in RPMI 1640 supplemented with 10% FBS. PTX22 maintenance media also contained 15 ng/mL paclitaxel and 5 μg/mL verapamil. Drug is removed from the media for 5-7 days before use in an experiment. All maintenance media contained 100 units/mL penicillin and 100 μg/mL streptomycin.
Cell lines are trypsinized and counted using a Coulter counter. Cells were plated in 96 well plates (190 μL/well) at the following densities: 1,000 cells/well for A549 and 3,000 cells/well for MDA-MB-435. The number of cells plated results in cell densities of 75-90% confluence by the time of harvest. Plates are seeded on day 0. On day 1 test compounds are added to triplicate wells in a final volume of 10 μL media. Initial cell density for each cell line is measured on day 1 by adding 10 μL MTS mixture (see below), incubating for 4 h and recording absorbance at 490 nm (A490). Two or three days after test compound addition, 10 μL/well of MTS mixture is added to the test plates and A490 was read 4 h later. A490 values for wells containing cells are corrected for media absorbance, then normalized to initial density readings to determine percent net growth. Percent net growth is calculated as (A490+drug−A490 initial)/(A490—drug—A490 initial). Graphs of percent net growth as a function of compound concentration are used to calculate concentrations resulting in 50% growth inhibition (IC50). MTS mixture is prepared fresh on day of addition to cell plates at a ratio of 10 μL of a 0.92 mg/mL solution of phenazine methosulfate (PMS) to 190 μL of a 2 mg/mL solution of MTS (3-(4,5-dimethylthiazol-2-yl)-5-(3-carboxymethoxyphenyl)-2-(4-sulfophenyl)-2H-tetrazolium, inner salt). PMS and MTS solutions are prepared in buffered saline containing 0.2 g/L KCl, 8.0 g/L NaCl, 0.2 g/L KH2PO4, 1.15 g/L Na2HPO4, 133 mg/L CaCl2.2H2O, 100 mg/L MgCl2.6H2O, (pH=7.35) and stored as foil-wrapped aliquots at −20° C. Test compounds are prepared as stock solutions in DMSO. Test compound dilutions are made in 2% DMSO/cell maintenance media and diluted into assay plates to give 0.1% DMSO final in all wells.

[3] = test system: panel of human tumor lines (drug-susceptible cell lines); test: Antiproliferative assay, methylene blue staining; format: cell-based; conditions: 120 h, 5 days incubation
Text: The following cell lines are obtained from the American Type Culture Collection (ATCC, Rockville, Md., USA): human colon carcinomas HCT-15 (CCL 225) and HCT-116 (CCL 247), human lung adenocarcinoma A549 (CCL 185), human large cell carcinoma NCI-H460 (HTB 177), estrogen-independent breast carcinoma MDA-MB-231 ([…]), prostate cancer cell line Du 145 (HTB 81). The human KB-31 (drug-sensitive) and KB-8511 (multidrug-resistant, Pgp170 overexpressing) epidermoid carcinoma cells are obtained from Dr. R. M. Baker, Roswell Park Memorial Institute (Buffalo, N.Y., USA) and have been previously described (Akiyam S, et al. Somatic Cell Molec Genetics 1985;11:117-126 and Fojo A, et al., Cancer Res. […];45:3002-3007). The human metastatic prostate carcinoma PC-3M is obtained from Dr. I. J. Fidler (MD Anderson Cancer Center, Houston, Tex., USA). The estrogen-dependent human breast carcinoma cell line MCF-7/ADR (multidrug resistant) is a subline of the MCF-7 cell line (ATCC HTB 22) and is obtained from Dr. D. Fabbro (Novartis Pharma AG, Basel, Switzerland) and has been previously described (Blobe G C, et al. J. Biol. Chem. 1993; 268:658-664).
For the antiproliferative assays, cells are seeded at 1.5×10^3/well into 96-well microtiter plates and incubated overnight. Compounds are added in serial dilutions on day 1. The plates are than incubated for additional 5 days. This allowed the control cultures to undergo at least 3 cell divisions. After incubation the cells are fixed with 3.3% v/v glutaraldehyde, washed with water and stained with 0.05% w/v methylene blue. After washing, the dye is eluted with 3% v/v HCl and the optical density measured at 665 nm with a SpectraMax 340 (Bucherer, Basel, Switzerland). IC50 values are determined by a computerized system (SoftPro, Bucherer, Basel, Switzerland) using the formula (OD test—OD start)/(OD control—OD start)×100. IC50 is defined as the drug concentration which leads to 50% of cells per well compared to control cultures (100%) at the end of the incubation period.

With C=C/C=C\[C@H](C)[C@H](OC(N)=O)[C@@H](C)[C@H](O)[C@@H](C)C/C(C)=C\[C@H](C)[C@@H](O)[C@@H](C)/C=C\[C@@H](O)C[C@@H]1OC(=O)[C@H](C)[C@@H](O)[C@H]1C [discodermolide, (+)-Discodermolide] the “potency compared with paclitaxel” value [1] was “more potent than paclitaxel”, the IC50 [2] was 60 nM and the IC50 ([2]; Homo sapiens, A549, 72 h) was 45 nM. For the same molecule, the IC50 [3] was 2 to 24 nM.

From patent US6774143B1, “Method for treating cells resistant to antineoplastic agents” (Novartis AG, priority 2003, dated 2004)
